Measurements taken from ChEMBL document CHEMBL3217729, “Sangamides, a new class of cyclophilin-inhibiting host-targeted antivirals for treatment of HCV infection” (Medchemcomm, 2012).
Values after ≈ are worked out from the molar mass of the structure shown.

Assays:
Hepatitis C virus [1] = test: Antiviral activity against Hepatitis C virus genotype 1b I389luc-ubi-neo/NS3-3'/5.1 subgenomic replicon infected in human Huh5-2 cells after 4 days by luciferase assay; assay type: functional, cell-based, Hepacivirus hominis; settings: Huh-5-2, 96 h
[2] = Cytostatic activity against human Huh5-2 cells assessed as decrease in cell proliferation after 3 days by MTS method; assay type: ADME, cell-based, Huh-5-2
[3] = Selectivity index, ratio of CC50 for human Huh5-2 cells to EC50 for Hepatitis C virus genotype 1b I389luc-ubi-neo/NS3-3'/5.1 subgenomic replicon infected in human Huh5-2 cells; assay type: toxicity, cell-based, Huh-5-2; settings: read-out: Ratio CC50/EC50
[4] = biological target: T1, Peptidyl-prolyl cis-trans isomerase A (Homo sapiens, UniProt P62937); test: Inhibition of recombinant GST-tagged CypA (unknown origin)/HCV Con1 NS5A-His interaction after 16 hrs by ELISA
T1 sequence (P62937 whole entry): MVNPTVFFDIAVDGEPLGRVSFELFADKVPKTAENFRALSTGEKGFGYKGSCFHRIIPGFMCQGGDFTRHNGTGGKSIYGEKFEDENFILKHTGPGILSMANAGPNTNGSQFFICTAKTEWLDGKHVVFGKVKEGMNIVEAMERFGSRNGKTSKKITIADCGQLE

[5] = Solubility of the compound in phosphate buffered saline at pH 7.4 after 4 hrs by LC-MS/MS analysis
[6] = Half life in human liver microsomes at 1 uM by LC-MS/MS analysis; assay type: ADME
[7] = Half life in human hepatocytes at 1 uM by LC-MS/MS analysis; assay type: ADME, cell-based, Hepatocyte
in vitro = settings: mouse, liver microsomes
Description: Half life in mouse liver microsomes at 1 uM by LC-MS/MS analysis

PBMC = test: Immunosuppressive activity in human PBMC isolated from two individuals assessed as inhibition of proliferation using [3H]thymidine by mixed lymphocyte reaction assay; assay type: cell-based
Hepatitis C virus [8] = test: Antiviral activity against Hepatitis C virus genotype 1a H77 infected in human Huh7 cells assessed as decrease in subgenomic RNA level after 72 hrs by RT-PCR analysis; assay type: functional, cell-based, Hepacivirus hominis; settings: genotype 1a H77, Huh-7, 72 h
Hepatitis C virus [9] = test: Antiviral activity against Hepatitis C virus genotype 1b Con1 infected in human Huh7 cells assessed as decrease in subgenomic RNA level after 72 hrs by RT-PCR analysis; assay type: functional, cell-based, Hepacivirus hominis; settings: genotype 1b Con1, Huh-7, 72 h
Hepatitis C virus [10] = test: Antiviral activity against Hepatitis C virus genotype 2a JFH-1 infected in human Huh7 cells assessed as decrease in subgenomic RNA level after 72 hrs by RT-PCR analysis; assay type: functional, cell-based, Hepacivirus hominis; settings: genotype 2a JFH-1, Huh-7, 72 h
[11] = biological target: T1, Peptidyl-prolyl cis-trans isomerase A; test: Inhibition of PPIase activity of recombinant CypA (unknown origin) assessed as chymotrypsin-mediated N-succinyl-Ala-Ala-Pro-Phe-p-nitroanilide hydrolysis after 1 hr by spectrophotometric analysis
[12] = Percentage bound in human plasma at 1 uM after 5 hrs by dialysis chamber method; assay type: ADME, cell-free; settings: read-out: PPB (converted)
physchem = settings: n-octanol/potassium phosphate buffer, pH 7.4

SMILES	EC50 (Hepatitis C virus [1]) [nM]	EC90 (Hepatitis C virus [1]) [nM]	CC50 at 72 h [2] [nM]	selectivity ratio [3]	IC50 [4] [nM]	solubility at 4 h [5] [µM]	half-life at 1 µM [6] [min]	half-life at 1 µM [7] [min]	half-life at 1 µM (in vitro) [min]	IC50 (PBMC) [nM]	EC50 (Hepatitis C virus [8]) [nM]	EC50 (Hepatitis C virus [9]) [nM]	EC50 (Hepatitis C virus [10]) [nM]	IC50 [11] [nM]	fraction unbound at 5 h, 1 µM [12]	logD at 1 h (physchem)
CC(=O)CC[C@H]1C(=O)N[C@@H](C(C)C)C(=O)N[C@@H](Cc2cccc(O)c2)C(=O)N2CCCC(N2)C(=O)O[C@H](/C(C)=C/C=C/C(=O)NC(C)C)C/C=C/C=C/[C@H](O)[C@H](C)[C@H]1O (stereo in doubt)	560	4600	> 100000	> 179	380	12 (≈ 9.86 µg/mL)	16.9	59	6.4	–	–	–	–	–	–	–
CC(=O)CC[C@H]1C(=O)N[C@@H](C(C)C)C(=O)N[C@@H](Cc2cccc(O)c2)C(=O)N2CCCC(N2)C(=O)O[C@H](/C(C)=C/C=C/C(=O)N(CC(C)C)CC(C)C)C/C=C/C=C/[C@H](O)[C@H](C)[C@H]1O (stereo partly drawn)	309	1100	2100	6.8	390	–	21.6	98	2.5	–	–	–	–	–	–	–
CCN(CC)C(=O)/C=C/C=C(\C)[C@@H]1C/C=C/C=C/[C@H](O)[C@H](C)[C@@H](O)[C@@H](CCC(C)=O)C(=O)N[C@@H](C(C)C)C(=O)N[C@@H](Cc2cccc(O)c2)C(=O)N2CCCC(N2)C(=O)O1 (stereo partly drawn)	204	1200	> 100000	> 490	350	> 100	16.8	94	8.4	–	–	–	–	–	–	–
CNC(=O)/C=C/C=C(\C)[C@@H]1C/C=C/C=C/[C@H](O)[C@H](C)[C@@H](O)[C@@H](CCC(C)=O)C(=O)N[C@@H](C(C)C)C(=O)N[C@@H](Cc2cccc(O)c2)C(=O)N2CCCC(N2)C(=O)O1 (stereo in doubt)	8000	60200	> 100000	> 13	500	> 100	37.2	192	22.5	–	–	–	–	–	–	–
C/C=C/C[C@@H](C)[C@@H](O)[C@H]1C(=O)N[C@@H](CC)C(=O)N(C)[C@H](C)C(=O)N(CC)[C@@H](C(C)C)C(=O)N[C@@H](C(C)C)C(=O)N(C)[C@@H](CC(C)C)C(=O)N[C@@H](C)C(=O)N[C@H](C)C(=O)N(C)[C@@H](CC(C)C)C(=O)N(C)[C@@H](CC(C)C)C(=O)N(C)[C@@H](C(C)C)C(=O)N1C [ALISPORIVIR]	–	–	–	–	–	–	–	–	–	840	–	–	–	–	–	–
C=CCNC(=O)/C=C/C=C(\C)[C@@H]1C/C=C/C=C/[C@H](O)[C@H](C)[C@@H](O)[C@@H](CCC(C)=O)C(=O)N[C@@H](C(C)C)C(=O)N[C@@H](Cc2cccc(O)c2)C(=O)N2CCCC(N2)C(=O)O1 (stereo in doubt)	1600	8500	48000	30	360	–	23.9	139	10.6	–	–	–	–	–	–	–
CC(=O)CC[C@H]1C(=O)N[C@@H](C(C)C)C(=O)N[C@@H](Cc2cccc(O)c2)C(=O)N2CCCC(N2)C(=O)O[C@H](/C(C)=C/C=C/C(=O)Nc2ccncc2)C/C=C/C=C/[C@H](O)[C@H](C)[C@H]1O (stereo partly drawn)	8060	31900	> 100000	> 12.4	550	15 (≈ 12.9 µg/mL)	32.2	> 240	15.2	–	–	–	–	–	–	–
CC(=O)CC[C@H]1C(=O)N[C@@H](C(C)C)C(=O)N[C@@H](Cc2cccc(O)c2)C(=O)N2CCCC(N2)C(=O)O[C@H](/C(C)=C/C=C/C(=O)N2CCOCC2)C/C=C/C=C/[C@H](O)[C@H](C)[C@H]1O (stereo partly drawn)	1400	7400	–	> 72	330	> 100	50.3	> 240	18	–	–	–	–	–	–	–
C/C=C/C[C@@H](C)[C@@H](O)[C@H]1C(=O)N[C@@H](CC)C(=O)N(C)CC(=O)N(C)[C@@H](CC(C)C)C(=O)N[C@@H](C(C)C)C(=O)N(C)[C@@H](CC(C)C)C(=O)N[C@@H](C)C(=O)N[C@H](C)C(=O)N(C)[C@@H](CC(C)C)C(=O)N(C)[C@@H](CC(C)C)C(=O)N(C)[C@@H](C(C)C)C(=O)N1C [CYCLOSPORINE]	306	1000	–	–	–	–	–	–	–	–	198	137	455	–	–	–
CC(=O)CC[C@H]1C(=O)N[C@@H](C(C)C)C(=O)N[C@@H](Cc2cccc(O)c2)C(=O)N2CCCC(N2)C(=O)O[C@H](/C(C)=C/C=C/C(=O)N(C)C2CCCCC2)C/C=C/C=C/[C@H](O)[C@H](C)[C@H]1O (stereo partly drawn)	148	1900	66000	446	420	48 (≈ 42.1 µg/mL)	3.3	> 240	1.9	–	–	–	–	–	–	–
CC(=O)CC[C@H]1C(=O)N[C@@H](C(C)C)C(=O)N[C@@H](Cc2cccc(O)c2)C(=O)N2CCCC(N2)C(=O)O[C@H](/C(C)=C/C=C/C(=O)NC2CCCCC2)C/C=C/C=C/[C@H](O)[C@H](C)[C@H]1O (stereo in doubt)	336	4230	> 100000	> 298	450	29 (≈ 25 µg/mL)	6.5	> 240	2.7	–	–	–	–	–	–	–
CC(=O)CC[C@H]1C(=O)N[C@@H](C(C)C)C(=O)N[C@@H](Cc2cccc(O)c2)C(=O)N2CCCC(N2)C(=O)O[C@H](/C(C)=C/C=C/C(=O)Nc2ccccn2)C/C=C/C=C/[C@H](O)[C@H](C)[C@H]1O (stereo in doubt)	167	740	40000	240	390	61 (≈ 52.3 µg/mL)	4.4	95	8.8	–	–	–	–	4.1	–	–
CC(=O)CC[C@H]1C(=O)N[C@@H](C(C)C)C(=O)N[C@@H](Cc2cccc(O)c2)C(=O)N2CCCC(N2)C(=O)O[C@H](/C(C)=C/C=C/C(=O)N(C)C)C/C=C/C=C/[C@H](O)[C@H](C)[C@H]1O (stereo partly drawn)	349	62000	> 100000	> 287	630	> 100	48	128	24.7	–	–	–	–	–	–	–
CC(=O)CC[C@H]1C(=O)N[C@@H](C(C)C)C(=O)N[C@@H](Cc2cccc(O)c2)C(=O)N2CCCC(N2)C(=O)O[C@H](/C(C)=C/C=C/C(=O)N(C)c2ccccn2)C/C=C/C=C/[C@H](O)[C@H](C)[C@H]1O (stereo partly drawn)	2010	11500	> 100000	> 50	330	17 (≈ 14.8 µg/mL)	19.1	150	9.8	–	–	–	–	–	–	–
CCC[C@H](NC(=O)[C@@H]1[C@H]2CCC[C@H]2CN1C(=O)[C@@H](NC(=O)[C@@H](NC(=O)c1cnccn1)C1CCCCC1)C(C)(C)C)C(=O)C(=O)NC1CC1	235	838	> 74000	> 315	–	–	–	–	–	–	–	720	–	–	–	–
CC[C@H]1C[C@H](C)[C@@]2(NC1=O)O[C@@H](C[C@H](O)[C@@H](C)CC/C=C/C=C(\C)[C@@H]1C/C=C/C=C/[C@H](O)[C@H](C)[C@@H](O)[C@@H](CCC(C)=O)C(=O)N[C@@H](C(C)C)C(=O)N[C@@H](Cc3cccc(O)c3)C(=O)N3CCCC(N3)C(=O)O1)[C@H](C)[C@H](O)[C@@H]2C (stereo partly drawn)	318	5500	9100	–	–	45 (≈ 49.1 µg/mL)	7.9	145	4	215	301	222	247	–	< 0.01	> 3.7
CC(=O)CC[C@H]1C(=O)N[C@@H](C(C)C)C(=O)N[C@@H](Cc2cccc(O)c2)C(=O)N2CCCC(N2)C(=O)O[C@H](/C(C)=C/C=C/C(=O)Nc2cccnc2)C/C=C/C=C/[C@H](O)[C@H](C)[C@H]1O (stereo in doubt)	2480	5410	> 100000	> 40	460	18 (≈ 15.4 µg/mL)	7.5	116	3.3	–	–	–	–	–	–	–
CC(=O)CC[C@H]1C(=O)N[C@@H](C(C)C)C(=O)N[C@@H](Cc2cccc(O)c2)C(=O)N2CCCC(N2)C(=O)O[C@H](/C(C)=C/C=C/C(=O)Nc2ccc(-c3ccccc3)cc2)C/C=C/C=C/[C@H](O)[C@H](C)[C@H]1O (stereo in doubt)	208	1150	> 100000	> 481	520	2 (≈ 1.86 µg/mL)	2.3	> 240	1.3	–	–	–	–	–	–	–
